Like-named read-outs stand apart in the source and are kept apart here.
Key:
[1] = target: T1, Cathepsin D (Cat D) (Homo sapiens, UniProt P07339); assay: In vitro enzymatic Cathepsin D (Cat D) FRET assay; assay type: biochemical; conditions: read-out: CatD IC50
T1 construct: Recombinant Cat D was expressed in CHO cells; made in house; host or cells: CHO cells
Summary of the method: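 FRET read-out: a fluorophore/quencher-labelled peptide substrate is cleaved by 9 nM Cat D (recombinant, CHO-expressed) following a one-hour preincubation with inhibitor dilutions in DMSO. Tris buffer added to neutralize pH ends the reaction before fluorescence measurement.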

[2] = test system: Aβ40 in conditioned medium of cells stably expressing Amyloid Precursor Protein (APP); assay: In vitro BACE cell-based assay (HEK cell assay), Aβ40 sandwich ELISA; conditions: Homo sapiens, HEK293
Summary of the method: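 Aβ40 in conditioned medium was quantified by time-resolved fluorescence sandwich ELISA (pAb40 capture 3 h at 4 °C, biotin-6E10 detection 2 h at 4 °C) after 24 h compound exposure of APP-expressing cells. Doses spanned 10 points from 100 μM or 10 μM top, 0.1% DMSO; IC50 was derived from percent of control.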

[3] = target: Beta Secretase enzyme (BACE1) (Homo sapiens, UniProt P56817); assay: In vitro enzymatic BACE FRET assay; assay type: biochemical; conditions: read-out: BACE1 FRET assay IC50
Sequence of Beta Secretase enzyme (BACE1) (P56817 46-501): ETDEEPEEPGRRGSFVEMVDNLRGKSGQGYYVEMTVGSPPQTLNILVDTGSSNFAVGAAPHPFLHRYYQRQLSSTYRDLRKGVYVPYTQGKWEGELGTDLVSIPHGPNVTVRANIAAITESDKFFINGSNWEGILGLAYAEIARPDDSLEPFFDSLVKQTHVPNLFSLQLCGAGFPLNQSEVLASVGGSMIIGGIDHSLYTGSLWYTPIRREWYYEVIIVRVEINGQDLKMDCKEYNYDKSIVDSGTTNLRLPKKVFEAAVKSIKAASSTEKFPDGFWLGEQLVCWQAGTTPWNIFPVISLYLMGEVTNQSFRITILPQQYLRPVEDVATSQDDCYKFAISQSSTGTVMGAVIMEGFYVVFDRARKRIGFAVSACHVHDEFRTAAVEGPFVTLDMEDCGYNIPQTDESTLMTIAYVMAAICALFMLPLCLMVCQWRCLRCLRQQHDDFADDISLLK
Summary of the method: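 Readout: dequenched fluorescence (ex 488 nm/[…]) after neutralizing with Tris buffer. Reactions, begun by adding 50 nM quenched peptide substrate spanning the BACE cleavage site, were incubated one hour at pH 4.2 in 0.05 M acetate with 100 uM genapol and 10% final DMSO.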

T1 sequence (P07339 65-412, species assumed): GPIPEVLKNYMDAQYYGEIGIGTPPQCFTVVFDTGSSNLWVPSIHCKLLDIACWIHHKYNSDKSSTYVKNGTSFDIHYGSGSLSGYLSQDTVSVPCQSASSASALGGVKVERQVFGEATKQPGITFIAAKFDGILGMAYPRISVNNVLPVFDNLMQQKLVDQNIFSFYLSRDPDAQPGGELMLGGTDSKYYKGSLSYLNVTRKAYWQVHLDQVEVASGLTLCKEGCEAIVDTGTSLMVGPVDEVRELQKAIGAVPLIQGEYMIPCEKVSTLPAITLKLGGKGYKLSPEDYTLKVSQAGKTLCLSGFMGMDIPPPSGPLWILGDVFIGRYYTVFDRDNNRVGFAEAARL

IC50 [1] | IC50 ([2]; average IC50, cell assay) | IC50 ([3]; average IC50, enzyme assay) | SMILES | also measured
540000 nM | 474 nM | 549 nM | Cc1cc(C#N)cnc1Oc1ccc(F)c([C@]2(C)CS(=O)(=O)C(C)(C)C(N)=N2)c1 [Example 271, 6-(3-((3R)-5-amino-3,6,6-trimethyl-1,1-dioxido-3,6-dihydro-2H-1,4-thiazin-3-yl)-4-fluorophenoxy)-5-methyl-3-pyridinecarbonitrile] | –
163000 nM | 18.1 nM | 6.41 nM | COc1cnc2c(Nc3cnc(F)c([C@]4(C)CS(=O)(=O)C5(CCC5)C(N)=N4)c3)nccc2n1 [Example 231, N-(5-((7R)-9-amino-7-methyl-5,5-dioxido-5-thia-8-azaspiro[3.5]non-8-en-7-yl)-6-fluoro-3-pyridinyl)-2-methoxypyrido[3,4-b]pyrazin-5-amine] | –
421000 nM | 2630 nM | 2710 nM | Cc1cc(Oc2ccc(F)c([C@]3(C)CS(=O)(=O)C(C)(C)C(N)=N3)c2)ncc1Cl [Example 276, (5R)-5-(5-((5-chloro-4-methyl-2-pyridinyl)oxy)-2-fluorophenyl)-2,2,5-trimethyl-5,6-dihydro-2H-1,4-thiazin-3-amine 1,1-dioxide] | –
132000 nM | 574 nM | 248 nM | CC1(C)C(N)=N[C@](C)(c2cc(Oc3cccc(C(F)(F)F)n3)ccc2F)CS1(=O)=O [Example 269, (5R)-5-(2-fluoro-5-((6-(trifluoromethyl)-2-pyridinyl)oxy)phenyl)-2,2,5-trimethyl-5,6-dihydro-2H-1,4-thiazin-3-amine 1,1-dioxide] | –
242000 nM | 914 nM | 517 nM | CC1(C)C(N)=N[C@](C)(c2cc(Oc3nccc4ccsc34)ccc2F)CS1(=O)=O [Example 291, (5R)-5-(2-fluoro-5-(thieno[2,3-c]pyridin-7-yloxy)phenyl)-2,2,5-trimethyl-5,6-dihydro-2H-1,4-thiazin-3-amine 1,1-dioxide] | –
490000 nM | – | 5.89 nM | CC1(C)C(N)=N[C@](C)(c2cc(NC(=O)c3ncc(C(F)F)cc3Cl)cnc2F)CS1(=O)=O [Example 348, N-(5-((3R)-5-amino-3,6,6-trimethyl-1,1-dioxido-3,6-dihydro-2H-1,4-thiazin-3-yl)-6-fluoro-3-pyridinyl)-3-chloro-5-(difluoromethyl)-2-pyridinecarboxamide] | IC50 ([2]; average IC50, HEK cell assay): 9.92 nM
304000 nM | – | – | Cc1nc2c(Nc3ccc(F)c([C@]4(C)CS(=O)(=O)CC(N)=N4)c3)nccc2s1 [Example 58, N-(3-((3R)-5-amino-3-methyl-1,1-dioxido-3,6-dihydro-2H-1,4-thiazin-3-yl)-4-fluorophenyl)-2-methyl[1,3]thiazolo[4,5-c]pyridin-4-amine] | IC50 ([2]; Aβ40, 24 h incubation): 292 nM; IC50 [3]: 190 nM
106000 nM | – | – | Cc1cc(OC(F)F)cnc1C(=O)Nc1cnc(F)c([C@]2(C)CS(=O)(=O)C3(CC3)C(N)=N2)c1 [Example 454, N-(5-((6R)-8-amino-6-methyl-4,4-dioxido-4-thia-7-azaspiro[2.5]oct-7-en-6-yl)-6-fluoro-3-pyridinyl)-5-(difluoromethoxy)-3-methyl-2-pyridinecarboxamide] | IC50 ([2]; average IC50, HEK cells): 3.9 nM; IC50 ([3]; average IC50): 3.1 nM
233000 nM | – | 3.13 nM | COc1cnc(C(=O)Nc2ccc(F)c([C@@]3(C)N=C(N)C(C)(C)S(=O)(=O)C3F)c2)c(C)c1 (stereo partly drawn) [Example 337, N-(3-((3R)-5-amino-2-fluoro-3,6,6-trimethyl-1,1-dioxido-3,6-dihydro-2H-1,4-thiazin-3-yl)-4-fluorophenyl)-5-methoxy-3-methyl-2-pyridinecarboxamide] | IC50 ([2]; average IC50, HEK cell assay): 9.7 nM
247000 nM | – | – | CC1(C)C(N)=N[C@](C)(c2cc(NC(=O)c3ccc(C(F)F)cn3)cnc2F)CS1(=O)=O [Example 404, N-(5-((3R)-5-amino-3,6,6-trimethyl-1,1-dioxido-3,6-dihydro-2H-1,4-thiazin-3-yl)-6-fluoro-3-pyridinyl)-5-(difluoromethyl)-2-pyridinecarboxamide] | IC50 [2]: 11.9 nM; IC50 [3]: 11 nM

— patent US20140107109A1, “AMINO-DIHYDROTHIAZINE AND AMINO-DIOXIDO DIHYDROTHIAZINE COMPOUNDS AS BETA-SECRETASE ANTAGONISTS AND METHODS OF USE” (Amgen Inc., priority 2012, published 2014)
